Measurements published in article PMC9124818 (Pharmacology Research & Perspectives, 2022).
Where two headings read alike, the source gives them in different places.

Columns and labels:
[1] = system: CYP2B6 mRNA; test: CYP450 induction in cultured human hepatocytes, mRNA by qRT-PCR; assay type: cell-based; conditions: for CYP2B6 induction (abstract): cultured human hepatocytes; for Basic kinetic model: R3: per FDA Guidance (2020); for EC50 at 3 days: human, cultured cryopreserved hepatocytes; for EC50 at 3 days / Basic kinetic model: Emax (fold) / EC50: ± standard error; for EC50 at 3 days / EC50: read-out: Basic kinetic model: EC50; for Fold‐change method: Fold change: highest dose tested (40 µM fenfluramine, 50 µM norfenfluramine); for Fold‐change method: % of control: percent of positive control induction of mRNA; for Basic kinetic model: Emax (fold): fit of fold‐change −1 values
Method: (§1) Cells were then harvested to isolate RNA, which was analyzed by quantitative reverse transcription‐polymerase chain reaction (qRT‐PCR) for induction of CYP1A2, CYP2B6, and CYP3A4 mRNA levels. Total RNA was phase extracted with TRIzol followed by purification with an RNeasy Mini Kit (Qiagen Inc., Germantown, MD). Quantitative PCR was performed in triplicate with a 7900HT Fast Real Time PCR System, an Applied Biosystems Universal Master Mix, and TaqMan® Gene Expression Assays. The quantity of target cDNA relative to control cDNA (GAPDH) was determined by the ΔΔCT method (Applied Biosystems User Bulletin #2). Relative quantitation measures the change in mRNA expression in a test sample relative to that in the control sample (i.e., DMSO). This method assumes that the efficiency of target amplification and the efficiency of endogenous control amplification are approximately equal.
(§2) mRNA assessment was conducted using a quantitative reverse transcription-polymerase chain reaction (qRT-PCR) according to the Applied Biosystems protocol. Each PCR was performed in triplicate. A Primer Mix was prepared for each Gene Expression assay. A typical Primer Mix contained TaqMan Fast Advanced Master Mix (1X), Gene Expression Assay (1X, 900 nM forward and reverse primers) and ribonuclease (RNase)-free water. The Reaction Mix was prepared by adding the Primer Mix to cDNA. A percentage of samples (no less than 10%) included NACs. […] The relative quantity of the target cDNA compared with that of the control cDNA (GAPDH) was determined by the ΔΔCt method (Applied Biosystems User Bulletin #2). Relative quantitation measures the change in mRNA expression in a test sample relative to that in a control sample (eg, dimethyl sulfoxide [DMSO]). This method assumes that the efficiency of the target amplification and the efficiency of the endogenous control amplification are approximately equal.
(§3) This software analyzes relative gene expression using the comparative Ct method (ΔΔCt), which relates the PCR signal of the target transcript to the PCR signal of the target in an untreated control. Both the treated sample and the untreated control signals are normalized to the endogenous control (GAPDH), for which expression is not affected by treatment and expression is constant throughout the tissue being tested.
(§4) The level of mRNA expression relative to the positive control was calculated as follows: […]

[2] = system: CYP3A4 mRNA; test: in vitro; conditions: for EC50 / Basic kinetic model: Emax (fold): ± standard error; for Fold‐change method: Fold change: highest dose tested (40 µM fenfluramine, 50 µM norfenfluramine); for Fold‐change method: % of control: percent of positive control induction of mRNA; for Basic kinetic model: Emax (fold): fit of fold‐change −1 values
Method: as §1, §2, §3, §4

[3] = biological target: T1, OAT1 (Homo sapiens, UniProt Q4U2R8); test: Transporter inhibition, uptake of [3H]-p-aminohippurate in HEK293 cells; assay type: in vitro ADME
T1 construct: host or cells: HEK293
T1 sequence (Q4U2R8 1-563): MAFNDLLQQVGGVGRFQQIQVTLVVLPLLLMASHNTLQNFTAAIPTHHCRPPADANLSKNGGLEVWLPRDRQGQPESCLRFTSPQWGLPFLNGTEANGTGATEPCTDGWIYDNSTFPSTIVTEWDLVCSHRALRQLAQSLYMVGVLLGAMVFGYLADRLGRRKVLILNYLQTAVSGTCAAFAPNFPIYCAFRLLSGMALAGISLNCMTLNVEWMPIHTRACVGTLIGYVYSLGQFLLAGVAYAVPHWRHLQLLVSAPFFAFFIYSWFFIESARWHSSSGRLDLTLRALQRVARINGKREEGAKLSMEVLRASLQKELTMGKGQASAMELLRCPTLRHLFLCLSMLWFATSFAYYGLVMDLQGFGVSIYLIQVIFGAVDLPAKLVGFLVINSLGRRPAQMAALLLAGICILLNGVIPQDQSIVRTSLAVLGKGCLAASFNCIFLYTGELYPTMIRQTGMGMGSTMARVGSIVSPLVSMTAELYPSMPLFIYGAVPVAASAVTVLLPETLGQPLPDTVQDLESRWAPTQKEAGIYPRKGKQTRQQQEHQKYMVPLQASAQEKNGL
Method: The test compound (FFA or nFFA) or the positive control substrate ([…], respectively) was added to the donor chamber. […] Cells were then washed, lysed with scintillation cocktail, and analyzed for the probe substrate with a MicroBeta scintillation counter (PerkinElmer, Hopkinton, MA). Transcellular transporter assay conditions are described in Supplemental Table 1. Calculation of IC50 values was based on bidirectional permeability of probe substrate with and without the inhibitor in MDCKII cells expressing BCRP and in Caco‐2 cells expressing P‐gp, and transporter‐dependent uptake of probe substrate in HEK293 cells expressing all other transporters (Supplemental Table 1).
The transporter-specific uptake of the probe substrate in cells was determined by subtracting the accumulation in the control cells from the accumulation in the transporter-expressing cells.

[4] = biological target: T2, CYP1A2 (Homo sapiens, UniProt P05177); test: Direct CYP450 inhibition in human liver microsomes (phenacetin O-dealkylation)
T2 sequence (P05177 1-516): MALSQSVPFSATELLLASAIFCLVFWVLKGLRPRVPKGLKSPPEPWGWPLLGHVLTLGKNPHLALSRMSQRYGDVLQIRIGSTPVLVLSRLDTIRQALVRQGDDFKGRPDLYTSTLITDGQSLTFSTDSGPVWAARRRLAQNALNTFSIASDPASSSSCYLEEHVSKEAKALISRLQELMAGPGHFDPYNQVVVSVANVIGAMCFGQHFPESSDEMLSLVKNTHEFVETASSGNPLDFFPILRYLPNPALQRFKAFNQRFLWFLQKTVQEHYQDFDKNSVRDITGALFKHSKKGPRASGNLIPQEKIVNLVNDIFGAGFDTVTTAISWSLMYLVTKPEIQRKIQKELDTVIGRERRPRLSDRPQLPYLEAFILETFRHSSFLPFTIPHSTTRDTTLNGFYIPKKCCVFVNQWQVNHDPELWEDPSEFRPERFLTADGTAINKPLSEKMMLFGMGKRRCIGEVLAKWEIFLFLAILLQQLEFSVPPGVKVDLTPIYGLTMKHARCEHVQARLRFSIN
Excerpt: A mixed‐gender pool of 200 individual human liver microsomal samples was used.
This LIMS utilizes the Levenberg-Marquardt algorithm to perform nonlinear regression fitting of the data to the following 4-parameter sigmoidal-logistic IC50 equation:
As percent of control values are utilized, the Min is set to 0 and the Max is set to 100 (or other values, as appropriate). […] Therefore, when an IC50 value falls outside the concentration range studied, the IC50 values are reported to be greater than the highest concentrations of test article evaluated.

SMILES: CCNC(C)Cc1cccc(C(F)(F)F)c1 (racemic) [FFA, (RS)‐ethyl(α‐methyl‐3‐trifluoromethylphenethyl)amine, reference compound]
- CYP2B6 induction (abstract) [1]: up to 2.8 fold
- Basic kinetic model: Potential to induce ([1]; hepatocytes HC7‐8): No
- Static mechanistic model: Potential to induce ([1]; hepatocytes HC7‐8): No (AUCR <0.8 to denote induction)
- Basic kinetic model: R3 ([1]; hepatocytes HC7‐8): 0.87
- Basic kinetic model: Potential to induce ([1]; hepatocytes HC10‐8): Yes
- Static mechanistic model: Potential to induce ([1]; hepatocytes HC10‐8): No (AUCR <0.8 to denote induction)
- Basic kinetic model: R3 ([1]; hepatocytes HC10‐8): 0.77
- Basic kinetic model: Potential to induce ([1]; hepatocytes HC10‐10): Yes
- Static mechanistic model: Potential to induce ([1]; hepatocytes HC10‐10): No (AUCR <0.8 to denote induction)
- Basic kinetic model: R3 ([1]; hepatocytes HC10‐10): 0.76
- EC50 at 3 days ([1]; lot HC7-8, hepatocytes HC7‐8): 8.32 ± 2.1 µM
- EC50 at 3 days ([1]; lot HC10-8, hepatocytes HC10‐8): 13.6 ± 1.5 µM
- EC50 at 3 days ([1]; lot HC10-10, hepatocytes HC10‐10): 4.61 ± 3.3 µM
- Static mechanistic model: Potential to induce [2]: No (key: Yes: AUCR <0.8 to denote induction; No: AUCR <0.8 to denote induction)
- EC50 ([2]; human, Basic kinetic model: EC50, hepatocytes HC7‐8): 8.53 ± 4.3 µM
- EC50 ([2]; human, Basic kinetic model: EC50, hepatocytes HC10‐8): 20.4 ± 1.9 µM
- EC50 ([2]; human, Basic kinetic model: EC50, hepatocytes HC10‐10): 9.05 ± 3.6 µM
- CYP3A4 induction (abstract) ([2]; human, hepatocytes): 1.9-3.0 fold
- IC50 [3]: > 30 µM
- IC50 [4]: > 60 µM
- Basic model: Potential for clinical inhibition ([4]; substrate phenacetin): No (Potential to inhibit if R1 ≥ 1.02)
- Static mechanistic model: Potential for clinical inhibition ([4]; substrate phenacetin): No (Potential to inhibit if AUCR ≥ 1.25)

SMILES: CC(N)Cc1cccc(C(F)(F)F)c1.Cl (stereo not drawn) [nFFA, [1‐(3‐trifluoromethyl)phenyl]propan‐2‐amine hydrochloride]
- CYP2B6 induction (abstract) [1]: up to 2.0 fold
- Basic kinetic model: Potential to induce ([1]; hepatocytes HC7‐8): No
- Fold‐change method: Potential to induce ([1]; hepatocytes HC7‐8): Yes
- Static mechanistic model: Potential to induce ([1]; hepatocytes HC7‐8): No (AUCR <0.8 to denote induction)
- Fold‐change method: Fold change ([1]; hepatocytes HC7‐8): 2.15 fold
- Basic kinetic model: R3 ([1]; hepatocytes HC7‐8): 0.92
- Fold‐change method: % of control ([1]; hepatocytes HC7‐8): 10.60%
- Basic kinetic model: Emax (fold) ([1]; hepatocytes HC7‐8): 1.14 ± 0.083 fold
- EC50 ([1]; hepatocytes HC7‐8): 10.8 ± 2.3 µM
- Basic kinetic model: Potential to induce ([1]; hepatocytes HC10‐8): No
- Fold‐change method: Potential to induce ([1]; hepatocytes HC10‐8): Yes
- Static mechanistic model: Potential to induce ([1]; hepatocytes HC10‐8): No (AUCR <0.8 to denote induction)
- Fold‐change method: Fold change ([1]; hepatocytes HC10‐8): 3.01 fold
- Basic kinetic model: R3 ([1]; hepatocytes HC10‐8): 0.93
- Fold‐change method: % of control ([1]; hepatocytes HC10‐8): 21.20%
- Basic kinetic model: Emax (fold) ([1]; hepatocytes HC10‐8): 2.08 ± 0.197 fold
- EC50 ([1]; hepatocytes HC10‐8): 26.4 ± 2.9 µM
- Basic kinetic model: Potential to induce ([1]; hepatocytes HC10‐10): No
- Fold‐change method: Potential to induce ([1]; hepatocytes HC10‐10): Yes
- Static mechanistic model: Potential to induce ([1]; hepatocytes HC10‐10): No (AUCR <0.8 to denote induction)
- Fold‐change method: Fold change ([1]; hepatocytes HC10‐10): 2.54 fold
- Basic kinetic model: R3 ([1]; hepatocytes HC10‐10): 0.88
- Fold‐change method: % of control ([1]; hepatocytes HC10‐10): 21.60%
- Basic kinetic model: Emax (fold) ([1]; hepatocytes HC10‐10): 1.36 ± 0.11 fold
- EC50 ([1]; hepatocytes HC10‐10): 8.81 ± 1.6 µM
- Basic kinetic model: Potential to induce ([2]; hepatocytes HC7‐8): Yes
- Basic kinetic model: R3 ([2]; hepatocytes HC7‐8): 0.79
- Fold‐change method: Potential to induce ([2]; hepatocytes HC7‐8): Yes
- Static mechanistic model: Potential to induce ([2]; hepatocytes HC7‐8): No (AUCR <0.8 to denote induction)
- Fold‐change method: Fold change ([2]; hepatocytes HC7‐8): 4.91 fold
- Fold‐change method: % of control ([2]; hepatocytes HC7‐8): 3.68%
- Basic kinetic model: Emax (fold) ([2]; hepatocytes HC7‐8): 3.92 ± 0.048 fold
- Basic kinetic model: Potential to induce ([2]; hepatocytes HC10‐8): No
- Basic kinetic model: R3 ([2]; hepatocytes HC10‐8): 0.86
- Fold‐change method: Potential to induce ([2]; hepatocytes HC10‐8): Yes
- Static mechanistic model: Potential to induce ([2]; hepatocytes HC10‐8): No (AUCR <0.8 to denote induction)
- Fold‐change method: Fold change ([2]; hepatocytes HC10‐8): 5.75 fold
- Fold‐change method: % of control ([2]; hepatocytes HC10‐8): 15.30%
- Basic kinetic model: Emax (fold) ([2]; hepatocytes HC10‐8): 6.95 ± 1.0 fold
- Basic kinetic model: Potential to induce ([2]; hepatocytes HC10‐10): No
- Basic kinetic model: R3 ([2]; hepatocytes HC10‐10): 0.84
- Fold‐change method: Potential to induce ([2]; hepatocytes HC10‐10): Yes
- Static mechanistic model: Potential to induce ([2]; hepatocytes HC10‐10): No (AUCR <0.8 to denote induction)
- Fold‐change method: Fold change ([2]; hepatocytes HC10‐10): 4.57 fold
- Fold‐change method: % of control ([2]; hepatocytes HC10‐10): 4.85%
- Basic kinetic model: Emax (fold) ([2]; hepatocytes HC10‐10): 3.61 ± 0.40 fold
- EC50 ([2]; read-out: Basic kinetic model: EC50, hepatocytes HC7‐8): 12.9 ± 0.38 µM
- EC50 ([2]; read-out: Basic kinetic model: EC50, hepatocytes HC10‐8): 37.8 ± 5.6 µM
- EC50 ([2]; read-out: Basic kinetic model: EC50, hepatocytes HC10‐10): 17.1 ± 3.9 µM
- IC50 ([3]; HEK293, probe [3H]-p-aminohippurate 1 μM, read-out: IC50): > 50 µM
- IC50 ([4]; direct inhibition, human liver microsomes, substrate phenacetin): > 100 µM
- Basic model: Potential for clinical inhibition ([4]; substrate phenacetin): No (Potential to inhibit if R1 ≥ 1.02)
- Static mechanistic model: Potential for clinical inhibition ([4]; substrate phenacetin): No (Potential to inhibit if AUCR ≥ 1.25)
